Test results published in BindingDB's records for doi:10.1124/jpet.104.078303 (Abbott Laboratories, 2005).
“And” between values parts separate entries of the source, which are not always exact repeats. Equal values may be shown once.

How the values were obtained:
[1] = molecular target: Histamine H4 receptor (Homo sapiens, UniProt Q9H3N8)
[2] = molecular target: Histamine H3 receptor (Cavia porcellus, UniProt Q9JI35)
[3] = molecular target: Hrh3 protein (Rattus norvegicus, UniProt Q5PPG3)
[4] = molecular target: Histamine H2 receptor (Homo sapiens, UniProt P25021)
Chain of Histamine H2 receptor (P25021 whole entry): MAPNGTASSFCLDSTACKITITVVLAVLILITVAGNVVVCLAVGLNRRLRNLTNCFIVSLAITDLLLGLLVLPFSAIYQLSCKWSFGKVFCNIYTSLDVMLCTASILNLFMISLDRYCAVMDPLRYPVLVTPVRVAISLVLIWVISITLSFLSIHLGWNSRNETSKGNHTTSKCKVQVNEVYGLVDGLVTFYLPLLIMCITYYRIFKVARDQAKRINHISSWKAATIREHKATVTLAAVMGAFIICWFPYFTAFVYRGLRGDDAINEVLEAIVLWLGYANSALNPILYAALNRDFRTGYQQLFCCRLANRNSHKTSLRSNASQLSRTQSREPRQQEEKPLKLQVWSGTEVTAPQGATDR

[5] = molecular target: Histamine receptor H3 (Canis lupus familiaris, UniProt Q865E3)
Chain of Histamine receptor H3 (Q865E3 whole entry): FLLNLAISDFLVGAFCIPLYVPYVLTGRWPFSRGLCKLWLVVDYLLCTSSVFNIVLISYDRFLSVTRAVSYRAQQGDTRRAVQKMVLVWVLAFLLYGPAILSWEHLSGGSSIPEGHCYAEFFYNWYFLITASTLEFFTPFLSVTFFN

[6] = molecular target: Histamine H1 receptor (Homo sapiens, UniProt P35367)
Chain of Histamine H1 receptor (P35367 whole entry): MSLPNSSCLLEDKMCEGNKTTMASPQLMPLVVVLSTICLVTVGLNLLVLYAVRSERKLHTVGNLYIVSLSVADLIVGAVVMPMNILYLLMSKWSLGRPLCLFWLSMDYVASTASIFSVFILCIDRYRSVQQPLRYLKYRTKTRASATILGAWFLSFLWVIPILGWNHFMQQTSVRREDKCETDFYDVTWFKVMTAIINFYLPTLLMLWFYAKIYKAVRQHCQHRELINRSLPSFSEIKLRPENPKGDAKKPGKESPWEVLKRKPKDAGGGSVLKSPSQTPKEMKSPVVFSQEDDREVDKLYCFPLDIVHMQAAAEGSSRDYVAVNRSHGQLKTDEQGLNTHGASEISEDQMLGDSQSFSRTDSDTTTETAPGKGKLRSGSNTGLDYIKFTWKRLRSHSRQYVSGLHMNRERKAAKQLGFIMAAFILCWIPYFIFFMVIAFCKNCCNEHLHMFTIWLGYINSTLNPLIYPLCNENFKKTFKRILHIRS

[7] = molecular target: Histamine H3 receptor (Homo sapiens, UniProt Q9Y5N1)
Chain of Histamine H3 receptor (Homo sapiens, UniProt Q9Y5N1) (Q9Y5N1 whole entry): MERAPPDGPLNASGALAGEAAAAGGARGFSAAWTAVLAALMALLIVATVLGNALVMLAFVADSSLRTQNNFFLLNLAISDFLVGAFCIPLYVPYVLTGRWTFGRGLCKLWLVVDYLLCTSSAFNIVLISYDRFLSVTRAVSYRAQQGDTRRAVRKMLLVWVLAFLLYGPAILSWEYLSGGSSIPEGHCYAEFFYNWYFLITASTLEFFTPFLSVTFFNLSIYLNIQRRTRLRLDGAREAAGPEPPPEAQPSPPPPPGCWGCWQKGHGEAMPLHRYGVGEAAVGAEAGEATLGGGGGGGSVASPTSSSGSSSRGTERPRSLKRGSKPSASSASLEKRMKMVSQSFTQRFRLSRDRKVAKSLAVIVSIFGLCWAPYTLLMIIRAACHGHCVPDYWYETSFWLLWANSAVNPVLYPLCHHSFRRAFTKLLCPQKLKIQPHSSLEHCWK

Chain of Hrh3 protein (Q5PPG3 whole entry): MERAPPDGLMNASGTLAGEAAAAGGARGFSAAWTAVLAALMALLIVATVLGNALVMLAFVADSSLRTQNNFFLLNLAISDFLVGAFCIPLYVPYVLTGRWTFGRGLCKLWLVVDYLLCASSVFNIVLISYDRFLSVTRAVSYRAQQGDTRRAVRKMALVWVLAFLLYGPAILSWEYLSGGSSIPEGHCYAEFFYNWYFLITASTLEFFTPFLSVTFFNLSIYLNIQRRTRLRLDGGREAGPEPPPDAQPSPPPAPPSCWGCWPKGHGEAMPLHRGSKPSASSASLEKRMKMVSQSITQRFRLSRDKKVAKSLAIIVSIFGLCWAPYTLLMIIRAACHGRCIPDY
Chain of Histamine H3 receptor (Cavia porcellus, UniProt Q9JI35) (Q9JI35 whole entry): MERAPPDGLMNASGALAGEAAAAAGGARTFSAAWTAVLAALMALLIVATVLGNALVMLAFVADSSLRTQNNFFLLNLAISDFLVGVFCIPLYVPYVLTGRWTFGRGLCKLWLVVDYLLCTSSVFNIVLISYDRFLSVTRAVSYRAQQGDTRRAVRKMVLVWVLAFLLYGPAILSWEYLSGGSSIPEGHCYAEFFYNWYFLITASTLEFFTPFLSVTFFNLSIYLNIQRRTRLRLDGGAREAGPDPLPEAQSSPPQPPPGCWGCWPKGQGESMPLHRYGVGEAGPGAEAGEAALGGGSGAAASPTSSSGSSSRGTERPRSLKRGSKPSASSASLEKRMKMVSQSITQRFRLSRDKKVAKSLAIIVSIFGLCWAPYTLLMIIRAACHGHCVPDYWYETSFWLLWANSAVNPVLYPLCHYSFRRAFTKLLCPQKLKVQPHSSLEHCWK

| Ki [1] [nM] | Ki [3] | Ki [4] [nM] | Ki [5] [nM] | Structure (SMILES) | Ki [2] [nM] | Ki [6] [nM] | Ki [7] |
| --- | --- | --- | --- | --- | --- | --- | --- |
| > 10000 | 1.66 nM and 1.45 nM | > 10000 | 1.2 | C[C@@H]1CC[C@@H](C)N1CCCOc1ccc(-c2ccc(C(=O)N3CCOCC3)cc2)cc1 [(4'-(3-((2R,5R)-2,5-dimethylpyrrolidin-1-yl)propoxy)biphenyl-4-yl)(morpholino)methanone] | 0.55 |  | 0.41 nM and 0.43 nM |
| > 10000 | 1.23 nM and 3.24 nM | 6760 | 3.89 | C[C@@H]1CCCN1CCc1cc2cc(-c3ccc(C#N)cc3)ccc2o1 [(R)-4-(2-(2-(2-methylpyrrolidin-1-yl)ethyl)benzofuran-5-yl)benzonitrile] |  | 1620 |  |

| Structure (SMILES) | Ki [1] [nM] | Ki [3] | Ki [4] [nM] | Ki [5] [nM] | Ki [2] [nM] | Ki [6] [nM] | Ki [7] |
| --- | --- | --- | --- | --- | --- | --- | --- |
| CC(C)(C)CCC#C[C@@H]1C[C@H]1c1c[nH]cn1 | 51.3 | 0.11 nM and 0.25 nM | > 10000 | 1.32 | 0.63 | > 10000 | 5.25 nM and 12.3 nM |
